Measured values published in patent US8822464B2, “N-aryl-piperazine derivatives and their use as positive allosteric modulators of mGluR5 receptors” (Boehringer Ingelheim International GmbH, priority 2011, dated 2014).

Biological target: T1, human recombinant mGluR5 (Homo sapiens, UniProt P41594)
T1 construct: expressed in transfected cells; host or cells: HEK 293 cell line; cultured with tetracycline, hygromycin and geneticin; tetracycline withdrawn 3-7 days before the assay
Test: positive modulation of mGluR5, calcium based FLIPR assay in HEK 293 cells
Conditions: HEK 293 cell line expressing human recombinant mGluR5; peak height of Ca release fluorescence signal after glutamate at approximately 5% basal stimulation; nonlinear regression
Method: The positive modulation of mGluR5 is measured in a HEK 293 cell line expressing human recombinant mGluR5 and is detected with calcium based FLIPR assay. The cells are cultured with DMEM supplemented with 10% FCS, 2 μg/mL tetracycline, 100 μg/mL hygromycin and 500 μg/mL gneticin. The cell culture media is exchanged for tetracycline-free cell culture media 3-7 days before the assay. One day before the assay the cell culture medium is exchanged to DMEM without glutamine and phenol red and supplemented with 10% FCS, 100 μg/mL hygromycin and 500 μg/mL geneticin. On the assay day, the medium of the subconfluent cultures is removed and the cells are detached by addition of 2.5 ml EDTA(0.02%) per 175 cm2 culture flask for 1 minute. The cells are resuspend in Ringer solution (140 mM NaCl, 5 mM KCl, 2.5 mM CaCl2, 1.5 mM MgCl2, 5 mM Glucose, 10 mM Hepes; adjusted to pH 7.4 with NaOH), pooled and Ringer solution added to adjust the volume to 50 mL. The cell suspension is centrifuged for 5 min at 1500 U/min (425 g). The supernatant is removed and the cells washed a second time with 50 ml fresh Ringer solution and centrifuged again as before. The supernatant is again removed and the pellet resuspended in Ringer solution to 1,000,000 cells/ml (1×10^6 cells/mL). The cells are plated onto BD BioCoat Poly-D-Lysine 384 well plates (20.000 cells/well; 20 μl/well). The lid covered plates are then incubated until use at 37° C./10% CO2. For dye loading, 20 μl of Calcium-4 assay kit solution (prepared according to the manufacturer's description in Ringer solution) are added to the cells and the plates are incubated for 80 min 37° C. and then 10 min at room temperature.
Controls, Compound Dilution and Assay Execution:
Each assay plate contained wells with “high” and “low” controls:
Low controls 1% DMSO/ringer solution+basal glutamate activation (defined as 100% CTL).
High controls 10 μM CDPPB+basal glutamate activation (defined as 200% CTL).
Test compounds are dissolved and diluted in DMSO to 100-fold the desired concentrations. In a second step, the compounds are diluted in Ringer solution such that the compounds are 4-fold more concentrated than the desired final assay concentration. The final DMSO concentration was 1%.
20 μl of each compound solution are then transferred to the assay plate and the Ca2+ kinetic is measured to determine any intrinsic compound activity. After 5 min incubation in the FLIPR device, the second stimulation with 20 μl of glutamate in Ringer solution (glutamate concentration adjusted to approximately 5% basal stimulation of the maximal possible glutamate effect) is added and the kinetic Ca2+ response of the wells was measured for the modulation effect.
The peak height of the Ca release related fluorescence signal (9-66) is used for the EC50. The EC50 of the modulation is calculated over a nonlinear regression with GraphPad Prism (Table 1).

T1 sequence (P41594 21-1212): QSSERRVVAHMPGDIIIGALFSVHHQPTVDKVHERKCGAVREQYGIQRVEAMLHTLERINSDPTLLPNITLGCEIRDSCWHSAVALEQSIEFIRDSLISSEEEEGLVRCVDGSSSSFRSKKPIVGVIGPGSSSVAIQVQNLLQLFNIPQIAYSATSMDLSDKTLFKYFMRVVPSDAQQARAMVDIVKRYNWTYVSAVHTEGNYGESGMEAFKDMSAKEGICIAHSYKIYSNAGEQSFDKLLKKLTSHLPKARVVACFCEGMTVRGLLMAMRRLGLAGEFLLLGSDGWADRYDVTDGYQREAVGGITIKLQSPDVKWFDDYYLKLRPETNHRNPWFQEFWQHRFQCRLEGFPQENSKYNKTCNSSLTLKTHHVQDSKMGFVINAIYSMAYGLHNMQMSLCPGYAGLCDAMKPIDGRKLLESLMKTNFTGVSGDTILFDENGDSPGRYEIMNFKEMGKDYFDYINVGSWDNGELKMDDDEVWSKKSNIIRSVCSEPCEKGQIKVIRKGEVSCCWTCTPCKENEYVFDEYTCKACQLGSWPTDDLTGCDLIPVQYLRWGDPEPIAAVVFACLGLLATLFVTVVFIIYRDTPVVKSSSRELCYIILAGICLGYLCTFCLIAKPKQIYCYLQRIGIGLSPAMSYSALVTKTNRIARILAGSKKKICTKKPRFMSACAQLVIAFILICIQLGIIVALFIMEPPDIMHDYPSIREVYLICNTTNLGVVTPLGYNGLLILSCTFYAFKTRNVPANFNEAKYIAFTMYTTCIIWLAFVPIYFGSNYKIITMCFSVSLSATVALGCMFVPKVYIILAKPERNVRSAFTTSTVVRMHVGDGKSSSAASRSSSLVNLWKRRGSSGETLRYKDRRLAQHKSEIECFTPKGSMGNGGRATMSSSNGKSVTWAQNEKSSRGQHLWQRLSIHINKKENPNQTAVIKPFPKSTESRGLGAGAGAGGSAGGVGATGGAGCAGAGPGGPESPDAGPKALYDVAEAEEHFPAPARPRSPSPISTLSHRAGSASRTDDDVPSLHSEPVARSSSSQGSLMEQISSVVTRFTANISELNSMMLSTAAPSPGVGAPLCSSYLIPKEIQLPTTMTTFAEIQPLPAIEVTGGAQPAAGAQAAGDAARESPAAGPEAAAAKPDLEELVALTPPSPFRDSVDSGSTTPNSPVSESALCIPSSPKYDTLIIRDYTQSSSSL

SMILES | EC50
COc1cc(-c2cc(C(C)C)n(CC(=O)N3CCN(c4ncc(Br)cn4)CC3)n2)ccc1F [Example 7.01.50] | 512 nM
O=C(Cn1nc(-c2ccccc2)cc1-c1ccccc1)N1CCN(c2nccc3ccccc23)CC1 [Example 7.01.07] | 621 nM
Cc1cc(-c2cc(C3CC3)n(CC(=O)N3CCN(c4ncccn4)CC3)n2)ccc1F [Example 7.01.42] | 101 nM
COc1cc(N2CCN(C(=O)Cn3nc(-c4ccc(F)c(C)c4)cc3C(C)C)CC2)ncn1 [Example 7.01.27] | 64 nM
O=C(Cn1nc(-c2ccccc2)cc1-c1cc(Cl)cs1)N1CCN(c2ncccn2)CC1 [Example 7.01.143] | 20 nM
CCc1cc(-c2ccc(C)c(C)c2)nn1CC(=O)N1CCN(c2cc(OC)ncn2)CC1 [Example 7.01.93] | 170 nM
COCCCc1cc(-c2ccc(F)c(C)c2)nn1CC(=O)N1CCN(c2ncccn2)CC1 [Example 7.01.107] | 64 nM
CCc1cc(-c2ccc(F)c(C)c2)nn1CC(=O)N1CCN(c2ncc(F)cn2)CC1 [Example 7.01.72] | 63 nM
CCc1cc(-c2ccc(F)cc2)nn1CC(=O)N1CCN(c2ncc(OC)cn2)CC1 [Example 7.01.76] | 388 nM
Cc1cc(-c2cc(C)n(CC(=O)N3CCN(c4ncccn4)CC3)n2)ccc1F [Example 7.01.104] | 39 nM
Cc1cc(-c2cc(C3CCCCC3)n(CC(=O)N3CCN(c4cccnn4)CC3)n2)ccc1F [Example 7.01.38] | 100 nM
CCc1cc(-c2cccc(C)c2)nn1CC(=O)N1CCN(c2ncccn2)CC1 [Example 7.01.94] | 136 nM
COc1cc(N2CCN(C(=O)Cn3nc(-c4ccc(F)c(C)c4)cc3-c3ccccc3)CC2)ncn1 [Example 7.01.03] | 11 nM
Cc1cc(-c2cc(C3CC3)n(CC(=O)N3CCN(c4cccnn4)CC3)n2)ccc1F [Example 7.01.43] | 725 nM
Cc1ccc(-c2cc(-c3ccccc3)n(CC(=O)N3CCN(c4ncccn4)CC3)n2)cc1C [Example 7.01.98] | 13 nM
COc1ccc(-c2cc(C(C)C)n(CC(=O)N3CCN(c4cc(C)ccn4)CC3)n2)cc1 [Example 7.01.21] | 111 nM
COc1cc(N2CCN(C(=O)Cn3nc(-c4ccc(C)c(C)c4)cc3-c3ccccc3)CC2)ncn1 [Example 7.01.101] | 17 nM
O=C(Cn1nc(-c2ccc(F)cn2)cc1-c1ccccc1)N1CCN(c2ncccn2)CC1 [Example 7.01.57] | 81 nM
O=C(Cn1nc(-c2ccc(F)cn2)cc1-c1ccc(F)cc1)N1CCN(c2cccnn2)CC1 [Example 7.01.64] | 677 nM
COc1ccnc(N2CCN(C(=O)Cn3nc(-c4ccc(F)cc4)cc3-c3ccc(F)cc3)CC2)c1 [Example 7.01.16] | 32 nM

SMILES | EC50
CCc1cc(-c2ccc(F)cc2)nn1CC(=O)N1CCN(c2cc(OC)ccn2)CC1 [Example 7.01.75] | 421 nM
Cc1ccnc(N2CCN(C(=O)Cn3nc(-c4ccc(F)c(C)c4)cc3C3CC3)CC2)c1 [Example 7.01.44] | 176 nM
COc1cnc(N2CCN(C(=O)Cn3nc(-c4ccc(C)c(C)c4)cc3-c3ccccc3)CC2)nc1 [Example 7.01.103] | 24 nM
Cc1cc(-c2cc(CC(C)C)n(CC(=O)N3CCN(c4ccccn4)CC3)n2)ccc1F [Example 7.01.117] | 28 nM
Cc1ccnc(N2CCN(C(=O)Cn3nc(-c4ccc(F)c(C)c4)cc3C3CCCCC3)CC2)c1 [Example 7.01.33] | 161 nM
CCc1cc(-c2ccc(C)c(C)c2)nn1CC(=O)N1CCN(c2ccccn2)CC1 [Example 7.01.91] | 195 nM
COc1cc(-c2cc(C(C)C)n(CC(=O)N3CCN(c4cc(C)ccn4)CC3)n2)ccc1F [Example 7.01.48] | 687 nM
CC(C)c1cc(-c2ccc(F)cc2)nn1CC(=O)N1CCN(c2ncccn2)CC1 [Example 7.01.90] | 157 nM
CCCc1cc(-c2ccc(F)c(C)c2)nn1CC(=O)N1CCN(c2ncc(OC)cn2)CC1 [Example 7.01.82] | 33 nM
CCc1cc(-c2ccc(F)cc2)nn1CC(=O)N1CCN(c2cc(OC)ncn2)CC1 [Example 7.01.77] | 697 nM
CCc1cc(-c2cccc(C)c2)nn1CC(=O)N1CCN(c2ccccn2)CC1 [Example 7.01.95] | 237 nM
O=C(Cn1nc(-c2ccc(F)cc2)cc1-c1ccc(F)cc1)N1CCN(c2ncccn2)CC1 [Example 7.01.13] | 14 nM
CCc1cc(-c2cccc(Cl)c2)nn1CC(=O)N1CCN(c2ncccn2)CC1 [Example 7.01.113] | 94 nM
Cc1ccc(-c2cc(-c3ccccc3)n(CC(=O)N3CCN(c4ccccn4)CC3)n2)nc1 [Example 7.01.106] | 35 nM
COc1ccnc(N2CCN(C(=O)Cn3nc(-c4ccc(F)c(C)c4)cc3C3CC3)CC2)c1 [Example 7.01.46] | 333 nM
CCCc1cc(-c2ccc(F)c(C)c2)nn1CC(=O)N1CCN(c2cccnn2)CC1 [Example 7.01.84] | 67 nM
COc1cnc(N2CCN(C(=O)Cn3nc(-c4cccc(Cl)c4)cc3-c3ccccc3)CC2)nc1 [Example 7.01.147] | 19 nM
COc1cnnc(N2CCN(C(=O)Cn3nc(-c4ccc(F)c(C)c4)cc3C(C)C)CC2)c1 [Example 7.01.30] | 987 nM
Cc1cc(-c2cc(-c3ccccc3)n(CC(=O)N3CCN(c4ccccn4)CC3)n2)ccc1F [Example 7.01.04] | 11 nM

The next lines start with the values.

EC50 | SMILES
24 nM | Cc1nc(-c2cc(-c3ccccc3)n(CC(=O)N3CCN(c4ccccn4)CC3)n2)ccc1F [Example 7.01.155]
26 nM | COc1cc(N2CCN(C(=O)Cn3nc(-c4ccc(F)c(OC)c4)cc3-c3ccccc3)CC2)ncn1 [Example 7.01.152]
20 nM | COc1cc(N2CCN(C(=O)Cn3nc(-c4cccc(Cl)c4)cc3-c3ccccc3)CC2)ncn1 [Example 7.01.148]
39 nM | COc1cc(N2CCN(C(=O)Cn3nc(-c4cc(C)c(F)cn4)cc3-c3ccccc3)CC2)ncn1 [Example 7.01.159]
393 nM | O=C(Cn1nc(-c2ccccc2)cc1-c1ccccc1)N1CCN(c2ccccc2)CC1 [Example 7.02.04]
392 nM | COC(=O)c1ccc(-c2cc(-c3ccccc3)n(CC(=O)N3CCN(c4ncccn4)CC3)n2)cc1 [Example 7.04.03]
129 nM | O=C(Cn1nc(-c2ccccc2)cc1-c1ccccc1)N1CCN(c2ncncn2)CC1 [Example 7.02.14]
7 nM | N#Cc1cccc(-c2cc(-c3ccccc3)n(CC(=O)N3CCN(c4ncccn4)CC3)n2)c1 [Example 7.01.167]
130 nM | CCc1cc(-c2ccc(C)c(F)c2)nn1CC(=O)N1CCN(c2ncccn2)CC1 [Example 7.01.181]
42 nM | Cc1cccc(-c2cc(-c3ccccc3)nn2CC(=O)N2CCN(c3ncccn3)CC2)c1 [Example 7.01.164]
36 nM | COc1cnc(N2CCN(C(=O)Cn3nc(-c4ccc(F)c(C)c4)cc3C)CC2)nc1 [Example 7.02.26]
1200 nM | COCc1cc(-c2ccc(F)c(C)c2)nn1CC(=O)N1CCN(c2cccnn2)CC1 [Example 7.02.19]
38 nM | Cc1cc(-c2cc(-c3ccccc3)n(CC(=O)N3CCN(c4cc(OCC(C)O)ncn4)CC3)n2)ccc1F (stereo not drawn) [Example 7.05.02]
153 nM | COCc1cc(-c2ccc(F)c(C)c2)nn1CC(=O)N1CCN(c2ncccn2)CC1 [Example 7.02.15]
12 nM | O=C(Cn1nc(-c2cccc(Cl)c2)cc1-c1ccccc1)N1CCN(c2ncccn2)CC1 [Example 7.01.149]
60 nM | COc1cc(N2CCN(C(=O)Cn3nc(-c4ccc(F)c(C)c4)cc3C)CC2)ncn1 [Example 7.02.23]
85 nM | O=C(Cn1nc(-c2ccccc2)cc1-c1ccccc1)N1CCN(c2cnccn2)CC1 [Example 7.02.05]
79 nM | Cc1cc(-c2cc(-c3ccccc3)n(CC(=O)N3CCN(c4ccccn4)CC3)n2)ncc1F [Example 7.01.158]
48 nM | Cc1ccc(-c2cc(-c3ccccc3)n(CC(=O)N3CCN(c4ccccn4)CC3)n2)cc1F [Example 7.01.189]
9 nM | COc1cnc(N2CCN(C(=O)Cn3nc(-c4cccc(C)c4)cc3-c3ccccc3)CC2)nc1 [Example 7.01.171]
46 nM | O=C(Cn1nc(-c2ccc(OC(F)F)cn2)cc1-c1ccccc1)N1CCN(c2ccccn2)CC1 [Example 7.01.179]
